Columns and labels:
[1] = system: NOD mice; settings: results of refs (3) and (4); cited from earlier work
[2] = system: anti-idiotypic T cells; experiment: Immunization followed by spleen T cell proliferation assay (anti-idiotypic response), NOD mice; assay type: in vivo; settings: NOD female mice, 12 weeks old, 100 µg per mouse subcutaneously in IPA; tested 2 or 5 weeks after treatment; C9VDJ peptide 5 µg/ml (Figure 9)
Description: The peptides are useful for the production of a medicine for vaccination against IDDM. • Figure 1. Determination by PCR of TCR, Vβ gene usage in the C9 clone. Lanes 1-19: the 19 different Vβ amplification reactions with the Cβ oligonucleotide primer. Lane s.m.: fx/Hae III size marker. The gel was hybridized with an internal Cβ oligonucleotide probe and therefore the size marker is printed. The two positive bands for Vβ2 and Vβ12 indicate the existence of these segments in the C9 clone. • Figure 2. The presence of sequences homologous to the C9 VDJ rearrangement determined by PCR in different T-cell lines using the specific C9 VDJ oligonucleotide primer. The first four lanes show the results of the NOD lines C9 (lane 1), C7 (2), N4 (3), and an anti-ovalbumin line (4). […] T cell responses to hep60 (idiotype) and to the C9 clone (anti-idiotype) were measured in naive female and male NOD mice. […] The proliferative response was measured'by adding 3H-thymidine to the culture for the last 16 h of a 72 h stimulation. The incorporated 3H-thymidine was measured on a β-counter and the stimulation index (SI) was calculated as cpm incorporation in the presence of antigen/cpm incorporation in the absence of antigen. […]

VLGGGCALLRCIPALDSLTPANED (SEQ ID NO:5) [p277]
prevention or reversal of diabetes by vaccination [1]: could prevent (3) or even reverse diabetes
anti-C9 response (proliferation to C9VDJ peptide) after peptide treatment [2]: induces anti-C9 response

From patent publication EP0783524B1, “PEPTIDES AND PHARMACEUTICAL COMPOSITIONS COMPRISING THEM” (YEDA RESEARCH AND DEVELOPMENT CO. LTD., priority 1994, dated 2005)
